Where a name gives a salt, the structure may show the parent alone. Some results are limits rather than exact numbers.

One test deals with T1, PKB-PIF (Homo sapiens, UniProt P31751).
T1 construct: PIF (fusion partner); made in house
The test can be described thus: Measurement of PKB kinase inhibitory activity (IC50), 33P-ATP filter plate assay. Format: biochemical. The following applies: 0.6 nM enzyme, 30 μM ATP/γ33P-ATP, 25 μM AKTide-2T substrate, 20 minutes. From the text: The inhibition of protein kinase B (PKB) activity by compounds can be determined determined essentially as described by Andjelkovic et al. (Mol. Cell. Biol. 19, 5061-5072 (1999)) but using a fusion protein described as PKB-PIF and described in full by Yang et al (Nature Structural Biology 9, 940-944 (2002)). The protein is purified and activated with PDK1 as described by Yang et al. The peptide AKTide-2T (H-A-R-K-R-E-R-T-Y-S-F-G-H-H-A-OH) obtained from Calbiochem (#123900) is used as a substrate. A final concentration of 0.6 nM enzyme is used in a buffer that includes 20 mM MOPS pH 7.2, 30 μM ATP/γ^33P-ATP and 25 μM substrate. Compounds are added in DMSO solution to a final DMSO concentration of 2.5%. The reaction is allowed to proceed for 20 minutes before addition of excess orthophosphoric acid to quench activity. The reaction mixture is transferred to a phosphocellulose filter plate where the peptide binds and the unused ATP is washed away. After washing, scintillant is added and the incorporated activity measured by scintillation counting.
The % inhibition of the PKB activity is calculated and plotted in order to determine the concentration of test compound required to inhibit 50% of the PKB activity (IC50).

In the next test the target is T2, PKA catalytic domain (Homo sapiens, UniProt P17612).
T2 construct: using the PKA catalytic domain from Upstate Biotechnology (#14-440); purchased Upstate Biotechnology 14-440
Briefly: Measurement of PKA kinase inhibitory activity (IC50), 33P-ATP filter plate assay. Type of test: biochemical. The following applies: 1 nM enzyme, 40 μM ATP/γ33P-ATP, 5 μM substrate […], 20 minutes. The protocol: Compounds of the invention can be tested for PK inhibitory activity using the PKA catalytic domain from Upstate Biotechnology (#14-440) and the 9 residue PKA specific peptide ([…]), also from Upstate Biotechnology (#12-257), as the substrate. A final concentration of 1 nM enzyme is used in a buffer that includes 20 mM MOPS pH 7.2, 40 μM ATP/γ^33P-ATP and 5 μM substrate. Compounds are added in dimethylsulphoxide (DMSO) solution to a final DMSO concentration of 2.5%. The reaction is allowed to proceed for 20 minutes before addition of excess orthophosphoric acid to quench activity. Unincorporated γ^33P-ATP is then separated from phosphorylated proteins on a Millipore MAPH filter plate. The plates are washed, scintillant is added and the plates are then subjected to counting on a Packard Topcount.
The % inhibition of the PKA activity is calculated and plotted in order to determine the concentration of test compound required to inhibit 50% of the […] activity (IC50).

T1 sequence (P31751 with tags, fused parts or gaps limits assumed): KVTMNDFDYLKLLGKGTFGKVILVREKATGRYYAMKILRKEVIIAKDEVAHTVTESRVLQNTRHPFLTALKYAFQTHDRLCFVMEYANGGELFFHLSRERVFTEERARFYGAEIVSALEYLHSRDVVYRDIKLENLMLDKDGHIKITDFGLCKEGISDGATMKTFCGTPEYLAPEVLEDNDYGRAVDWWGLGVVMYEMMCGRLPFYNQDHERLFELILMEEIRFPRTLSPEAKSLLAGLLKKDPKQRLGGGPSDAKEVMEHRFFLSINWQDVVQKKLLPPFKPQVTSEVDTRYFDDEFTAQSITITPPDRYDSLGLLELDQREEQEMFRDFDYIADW

On PKB-PIF, `NC1CCN(c2ccnc3c2C(=O)C(=O)N3)CC1` [Example 10, 4-(4-Amino-piperidin-1-yl)-1H-pyrrolo[2,3-b]pyridine-2,3-dione] had a 50% inhibitory concentration (IC50) of less than 50000 nM.

Compound `NC1(Cc2ccc(Cl)cc2)CCN(c2ccnc3c2OCC(=O)N3)CC1` [Example 11, 8-[4-Amino-4-(4-chloro-benzyl)-piperidin-1-yl]-4H-pyrido[3,2-b][1,4]oxazin-3-one] came in with an IC50 on PKB-PIF of less than 5000 nM.

In the case of `Clc1ccc(C2(c3ccc(-c4ncnc5ccsc45)cc3)CCNCC2)cc1` [Example 4, 4-{4-[4-(4-Chloro-phenyl)-piperidin-4-yl]-phenyl}-thieno[3,2-d]pyrimidine formate], the IC50 against PKA catalytic domain and at PKB-PIF was less than 1000 nM in each case. The compound `NCCC(c1ccc(Cl)cc1)c1ccc(-c2ncnc3ccsc23)cc1` (stereo not shown) [Example 2, 3-(4-Chloro-phenyl)-3-(4-thieno[3,2-d]pyrimidin-4-yl-phenyl)-propylamine] gave an IC50 at PKB-PIF of less than 1000 nM. Same read-out and setting: then `NC1CCN(c2ncnc3sccc23)CC1` [Example 9, 1-Thieno[2,3-d]pyrimidin-4-ylpiperidin-4-ylamine], with less than 50000 nM; and `NC1(C(=O)NCc2ccc(Cl)cc2)CCN(c2ncnc3ccsc23)CC1` [Example 5, 4-Amino-1-thieno[3,2-d]pyrimidin-4-yl-piperidine-4-carboxylic acid 4-chloro-benzylamide], with less than 1000 nM. As to `CNCC(c1ccc(Cl)cc1)c1ccc(-c2ncnc3ccsc23)cc1` (stereo not shown) [Example 1, [2-(4-Chloro-phenyl)-2-(4-thieno[3,2-d]-pyrimidin-4-yl-phenyl)-ethyl]-methyl-amine bis-trifluoroacetate], the IC50 on PKA catalytic domain and against PKB-PIF was less than 1000 nM each time. In turn, `NCC(c1ccc(Cl)cc1)N1CCN(c2ncnc3ccsc23)CC1` (stereo not shown) [Example 3, 2-(4-Chloro-phenyl)-2-(4-thieno[3,2-d]pyrimidin-4-yl-piperazin-1-yl)-ethylamine formate] yielded an IC50 at PKB-PIF of less than 1000 nM.

Turning to `NC1CCN(c2ncnc3ccsc23)CC1` [Example 6, 1-Thieno[3,2-d]pyrimidin-4-ylpiperidin-4-ylamine], the 50% inhibitory concentration (IC50) against PKB-PIF is less than 5000 nM. With `NC1(Cc2ccc(Cl)cc2)CCN(c2ncnc3ccsc23)CC1` [Example 7, 4-(4-Chlorobenzyl)-1-thieno[3,2-d]pyrimidin-4-ylpiperidin-4-ylamine], the IC50 on PKB-PIF is less than 1000 nM. Consider `NC(c1ccc(Cl)cc1)C1CCN(c2ncnc3ccsc23)CC1` (stereo not shown) [Example 8, C-(4-Chlorophenyl)-C-(1-thieno[3,2-d]pyrimidin-4-ylpiperidin-4-yl)methylamine], for which the IC50 against PKB-PIF was less than 1000 nM.

The values above are taken from patent US20090124610A1, “PHARMACEUTICAL COMPOUNDS” (priority 2006, published 2009).
